Laboratory results as given in patent US12673933B2, “Aminopyrazine compounds as HPK1 inhibitor and the use thereof” (BEIGENE, LTD., priority 2019, dated 2026).

Molecular target: T1, HPK1 kinase (aa1-346, Life Technologies) (Homo sapiens, UniProt Q92918)
T1 construct: HPK1 kinase (aa1-346, Life Technologies); purchased Life Technologies
T1 sequence (Q92918 1-346): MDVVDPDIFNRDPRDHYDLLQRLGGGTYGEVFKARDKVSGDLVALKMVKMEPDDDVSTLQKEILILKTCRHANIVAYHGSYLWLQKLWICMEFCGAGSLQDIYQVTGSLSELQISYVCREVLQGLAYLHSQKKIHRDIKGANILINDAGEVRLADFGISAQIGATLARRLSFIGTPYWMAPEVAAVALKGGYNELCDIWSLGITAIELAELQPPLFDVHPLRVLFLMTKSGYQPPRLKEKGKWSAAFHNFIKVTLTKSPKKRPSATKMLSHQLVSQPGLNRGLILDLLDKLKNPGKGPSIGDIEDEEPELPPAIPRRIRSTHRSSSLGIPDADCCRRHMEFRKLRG
Assay: HPK Kinase Activity Assay at 1 mM ATP (TR-FRET)
Assay type: biochemical
Settings: HPK1 kinase 40 nM, 0.5 μM STK1 substrate, read-out: Enzymatic activity IC50
Experimental: HPK Kinase Activity Assay at 1 mM ATP
Compounds disclosed herein were tested for inhibition of HPK1 kinase (aa1-346, Life Technologies) activity in assays based on the time-resolved fluorescence-resonance energy transfer (TR-FRET) methodology. The assays were carried out in 384-well low volume black plates in a reaction mixture containing HPK1 kinase (40 nM), 1 mM ATP, 0.5 μM STK1 substrate and 0-10 μM compound in buffer containing 50 mM HEPES, 0.01% BSA, 0.1 mM Orthovanadate, 10 mM MgCl2, 1 mM DTT, pH=7.0, 0.005% Tween-20. The kinase was incubated with the compounds disclosed herein or DMSO for 60 minutes at room temperature and the reaction was initiated by the addition of ATP and STK1 substrate. After reaction at room temperature for 120 minutes, an equal volume of stop/detection solution was added according to the manufacture's instruction (CisBio). The stop/detection solution contained STK Antibody-Cryptate and XL665-conjugated streptavidin in Detection Buffer. The TR-FRET signals (ratio of fluorescence emission at 665 nm over emission at 620 nm with excitation at 337 nm wavelength) were recorded on a PHERAstar FS plate reader (BMG Labtech). Phosphorylation of STK1 substrate led to the binding of STK Antibody-Cryptate to the biotinylated STK1 substrate, which places fluorescent donor (Eu^3+ crypate) in close proximity to the accepter (Streptavidin-XL665), thus resulting in a high degree of fluorescence resonance energy transfer. The inhibition of HPK1 in presence of increasing concentrations of compounds was calculated based on the ratio of fluorescence at 665 nm to that at 620 nm. The IC50 for each compound was derived from fitting the data to the four-parameter logistic equation by Graphpad Prism software.

Row | SMILES | IC50
1 | COc1cnccc1COc1nc(-c2cc3c(c(OC)c2)CCN(C)C3)cnc1N [Example 180, 5-(5-methoxy-2-methyl-1,2,3,4-tetrahydroisoquinolin-7-yl)-3-((3-methoxypyridin-4-yl)methoxy)pyrazin-2-amine] | 21 nM
2 | Cc1cc(-c2cnc(N)c(-n3cc(C(=O)N(C)C4CCOC4)cn3)n2)cc2c1CCN(C)C2 (centres unmarked) [Example 306, 1-(3-amino-6-(2,5-dimethyl-1,2,3,4-tetrahydroisoquinolin-7-yl)pyrazin-2-yl)-N-methyl-N-(tetrahydrofuran-3-yl)-1H-pyrazole-4-carboxamide] | 89 nM
3 | CCn1cc(Oc2nc(-c3cc4c(c(NC)c3)CCN(C)C4)cnc2N)cn1 [Example 275, 7-(5-amino-6-(1-ethyl-1H-pyrazol-4-yloxy)pyrazin-2-yl)-N,2-dimethyl-1,2,3,4-tetrahydroisoquinolin-5-amine] | 14 nM
4 | CCNc1cc(COc2nc(-c3cc(C)c4c(c3)CN(C)CC4)cnc2N)ccn1 [Example 40, 5-(2,5-dimethyl-1,2,3,4-tetrahydroisoquinolin-7-yl)-3-((2-(ethylamino)pyridin-4-yl)methoxy)pyrazin-2-amine] | 29 nM
5 | Cc1cc(-c2cnc(N)c(-n3cc(C(=O)NC4CC4)cn3)n2)cc2c1CCN(C)C2 [Example 298, 1-(3-amino-6-(2,5-dimethyl-1,2,3,4-tetrahydroisoquinolin-7-yl)pyrazin-2-yl)-N-cyclopropyl-1H-pyrazole-4-carboxamide] | 4.2 nM
6 | Cc1cc(-c2cnc(N)c(Oc3cnn(CCC#N)c3)n2)cc2c1CCN(C)C2 [Example 277, 3-(4-((3-amino-6-(2,5-dimethyl-1,2,3,4-tetrahydroisoquinolin-7-yl)pyrazin-2-yl)oxy)-1H-pyrazol-1-yl)propanenitrile] | 6.5 nM
7 | Cc1cc(-c2cnc(N)c(OCc3ccccc3)n2)cc2c1CCN(C)C2 [Example 18, 3-(benzyloxy)-5-(2,5-dimethyl-1,2,3,4-tetrahydroisoquinolin-7-yl)pyrazin-2-amine] | 73 nM
8 | Cc1cnc(N)cc1COc1nc(-c2cc(C)c3c(c2)CN(C)CC3)cnc1N [Example 32, 3-((2-amino-5-methylpyridin-4-yl)methoxy)-5-(2,5-dimethyl-1,2,3,4-tetrahydroisoquinolin-7-yl)pyrazin-2-amine] | 5.1 nM
9 | Cc1cc(-c2cnc(N)c(OCc3ccncc3Cl)n2)cc2c1CCN(C)C2 [Example 21, 3-((3-chloropyridin-4-yl)methoxy)-5-(2,5-dimethyl-1,2,3,4-tetrahydroisoquinolin-7-yl)pyrazin-2-amine] | 35 nM
10 | Cc1cc(-c2cnc(N)c(Oc3cnn(CC(F)(F)F)c3)n2)cc2c1CCN(C)C2 [Example 303, 5-(2,5-dimethyl-1,2,3,4-tetrahydroisoquinolin-7-yl)-3-((1-(2,2,2-trifluoroethyl)-1H-pyrazol-4-yl)oxy)pyrazin-2-amine] | 16 nM
11 | Cc1cc(-c2cnc(N)c(OCc3ccncn3)n2)cc2c1CCN(C)C2 [Example 3, 5-(2,5-dimethyl-1,2,3,4-tetrahydroisoquinolin-7-yl)-3-(pyrimidin-4-ylmethoxy)pyrazin-2-amine] | 364 nM
12 | COc1cc(-c2cnc(N)c(OCc3ccnc(N)c3)n2)cc2c1CCN(C)C2 [Example 179, 3-((2-aminopyridin-4-yl)methoxy)-5-(5-methoxy-2-methyl-1,2,3,4-tetrahydroisoquinolin-7-yl)pyrazin-2-amine] | 7.2 nM
13 | CCOc1c(COc2nc(-c3cc(C)c4c(c3)CN(C)CC4)cnc2N)ccnc1N [Example 41, 3-((2-amino-3-ethoxypyridin-4-yl)methoxy)-5-(2,5-dimethyl-1,2,3,4-tetrahydroisoquinolin-7-yl)pyrazin-2-amine] | 8.9 nM
14 | Cc1cc(-c2cnc(N)c(Oc3cnn(CCC#N)c3)n2)cc2c1CN(C)CC2 [Example 308, 3-(4-((3-amino-6-(2,8-dimethyl-1,2,3,4-tetrahydroisoquinolin-6-yl)pyrazin-2-yl)oxy)-1H-pyrazol-1-yl)propanenitrile] | 48 nM
15 | Cc1cc(-c2cnc(N)c(-c3cn[nH]c3)n2)cc2c1CCN(C)C2 [Example 36, 5-(2,5-dimethyl-1,2,3,4-tetrahydroisoquinolin-7-yl)-3-(1H-pyrazol-4-yl)pyrazin-2-amine] | 93 nM
16 | Cc1cc(-c2cnc(N)c(OCc3c(Cl)cccc3Cl)n2)cc2c1CCN(C)C2 [Example 17, 3-((2,6-dichlorobenzyl)oxy)-5-(2,5-dimethyl-1,2,3,4-tetrahydroisoquinolin-7-yl)pyrazin-2-amine] | 231 nM
17 | Cc1cc(-c2cnc(N)c(-n3cc(C(=O)NCCN4CCCC4)cn3)n2)cc2c1CCN(C)C2 [Example 285, 1-(3-amino-6-(2,5-dimethyl-1,2,3,4-tetrahydroisoquinolin-7-yl)pyrazin-2-yl)-N-(2-(pyrrolidin-1-yl)ethyl)-1H-pyrazole-4-carboxamide] | 14 nM
18 | Cc1cc(-c2cnc(N)c(Oc3cnn(C(C)(C)C#N)c3)n2)cc2c1CCN(C)C2 [Example 317, 2-(4-(3-amino-6-(2,5-dimethyl-1,2,3,4-tetrahydroisoquinolin-7-yl)pyrazin-2-yloxy)-1H-pyrazol-1-yl)-2-methylpropanenitrile] | 20 nM
19 | Cc1cc(-c2cnc(N)c(Oc3cnn([C@H]4CC[C@@](C)(O)CC4)c3)n2)cc2c1CCN(C)C2 [Example 311, (1s,4s)-4-(4-(3-amino-6-(2,5-dimethyl-1,2,3,4-tetrahydroisoquinolin-7-yl)pyrazin-2-yloxy)-1H-pyrazol-1-yl)-1-methylcyclohexanol] | 7.7 nM
20 | CCOCCN(C)C(=O)c1cnn(-c2nc(-c3cc(C)c4c(c3)CN(C)CC4)cnc2N)c1 [Example 292, 1-(3-amino-6-(2,5-dimethyl-1,2,3,4-tetrahydroisoquinolin-7-yl)pyrazin-2-yl)-N-(2-ethoxyethyl)-N-methyl-1H-pyrazole-4-carboxamide] | 5.3 nM
21 | CCn1cc(Oc2nc(-c3cc(C)c4c(c3)CN(C)CC4)cnc2N)cn1 [Example 45, 5-(2,5-dimethyl-1,2,3,4-tetrahydroisoquinolin-7-yl)-3-(1-ethyl-1H-pyrazol-4-yloxy)pyrazin-2-amine] | 15 nM
22 | COc1cnc2[nH]ccc2c1COc1nc(-c2cc(C)c3c(c2)CN(C)CC3)cnc1N [Example 188, 5-(2,5-dimethyl-1,2,3,4-tetrahydroisoquinolin-7-yl)-3-((5-methoxy-1H-pyrrolo[2,3-b]pyridin-4-yl)methoxy)pyrazin-2-amine] | 8.1 nM
23 | Cc1cc(-c2cnc(N)c(OCc3ccncc3)n2)cc2c1CCN(C)C2 [Example 1, 5-(2,5-dimethyl-1,2,3,4-tetrahydroisoquinolin-7-yl)-3-(pyridin-4-ylmethoxy)pyrazin-2-amine] | 29 nM
24 | CCOCCn1cc(Oc2nc(-c3cc(C)c4c(c3)CN(C)CC4)cnc2N)cn1 [Example 278, 5-(2,5-dimethyl-1,2,3,4-tetrahydroisoquinolin-7-yl)-3-((1-(2-ethoxyethyl)-1H-pyrazol-4-yl)oxy)pyrazin-2-amine] | 15 nM
25 | Cc1cc(-c2cnc(N)c(OCc3ccnc(C#Cc4cccnc4)c3)n2)cc2c1CCN(C)C2 [Example 19, 5-(2,5-dimethyl-1,2,3,4-tetrahydroisoquinolin-7-yl)-3-((2-(pyridin-3-ylethynyl)pyridin-4-yl)methoxy)pyrazin-2-amine] | 98 nM
26 | Cc1cc(-c2cnc(N)c(Oc3cnn(C4CCN(C)CC4)c3)n2)cc2c1CCN(C)C2 [Example 307, 5-(2,5-dimethyl-1,2,3,4-tetrahydroisoquinolin-7-yl)-3-(1-(1-methylpiperidin-4-yl)-1H-pyrazol-4-yloxy)pyrazin-2-amine] | 5.9 nM
27 | Cc1cc(-c2cnc(N)c(C(=O)Nc3ccncc3)n2)cc2c1CCN(C)C2 [Example 287, 3-amino-6-(2,5-dimethyl-1,2,3,4-tetrahydroisoquinolin-7-yl)-N-(pyridin-4-yl)pyrazine-2-carboxamide] | 25 nM
28 | Cc1cc(-c2cnc(N)c(-n3cc(C(=O)N(C)C)cn3)n2)cc2c1CCN(C)C2 [Example 46, 1-(3-amino-6-(2,5-dimethyl-1,2,3,4-tetrahydroisoquinolin-7-yl)pyrazin-2-yl)-N,N-dimethyl-1H-pyrazole-4-carboxamide] | 21 nM
29 | Cc1cc(-c2cnc(N)c(OCc3ccnc4[nH]ccc34)n2)cc2c1CCN(C)C2 [Example 34, 3-((1H-pyrrolo[2,3-b]pyridin-4-yl)methoxy)-5-(2,5-dimethyl-1,2,3,4-tetrahydroisoquinolin-7-yl)pyrazin-2-amine] | 12 nM
